A word on the IC50: it is the concentration needed to halve the response being measured. Read a high IC50 as a need for much substance. By EC50 is commonly meant the concentration that produces a half-maximal response. High values mean lower potency in that assay, low ones higher potency in that assay.

Experiment [1] deals with Vascular endothelial growth factor receptor 2 (Homo sapiens, UniProt P35968). The experiment can be described thus: Inhibition of human VEGFR2 expressed in Sf9 cells.
A further experiment relates to HUVEC. In words: cells. The settings on record: Homo sapiens, 3 h.

Sequence of Vascular endothelial growth factor receptor 2 (P35968 whole entry): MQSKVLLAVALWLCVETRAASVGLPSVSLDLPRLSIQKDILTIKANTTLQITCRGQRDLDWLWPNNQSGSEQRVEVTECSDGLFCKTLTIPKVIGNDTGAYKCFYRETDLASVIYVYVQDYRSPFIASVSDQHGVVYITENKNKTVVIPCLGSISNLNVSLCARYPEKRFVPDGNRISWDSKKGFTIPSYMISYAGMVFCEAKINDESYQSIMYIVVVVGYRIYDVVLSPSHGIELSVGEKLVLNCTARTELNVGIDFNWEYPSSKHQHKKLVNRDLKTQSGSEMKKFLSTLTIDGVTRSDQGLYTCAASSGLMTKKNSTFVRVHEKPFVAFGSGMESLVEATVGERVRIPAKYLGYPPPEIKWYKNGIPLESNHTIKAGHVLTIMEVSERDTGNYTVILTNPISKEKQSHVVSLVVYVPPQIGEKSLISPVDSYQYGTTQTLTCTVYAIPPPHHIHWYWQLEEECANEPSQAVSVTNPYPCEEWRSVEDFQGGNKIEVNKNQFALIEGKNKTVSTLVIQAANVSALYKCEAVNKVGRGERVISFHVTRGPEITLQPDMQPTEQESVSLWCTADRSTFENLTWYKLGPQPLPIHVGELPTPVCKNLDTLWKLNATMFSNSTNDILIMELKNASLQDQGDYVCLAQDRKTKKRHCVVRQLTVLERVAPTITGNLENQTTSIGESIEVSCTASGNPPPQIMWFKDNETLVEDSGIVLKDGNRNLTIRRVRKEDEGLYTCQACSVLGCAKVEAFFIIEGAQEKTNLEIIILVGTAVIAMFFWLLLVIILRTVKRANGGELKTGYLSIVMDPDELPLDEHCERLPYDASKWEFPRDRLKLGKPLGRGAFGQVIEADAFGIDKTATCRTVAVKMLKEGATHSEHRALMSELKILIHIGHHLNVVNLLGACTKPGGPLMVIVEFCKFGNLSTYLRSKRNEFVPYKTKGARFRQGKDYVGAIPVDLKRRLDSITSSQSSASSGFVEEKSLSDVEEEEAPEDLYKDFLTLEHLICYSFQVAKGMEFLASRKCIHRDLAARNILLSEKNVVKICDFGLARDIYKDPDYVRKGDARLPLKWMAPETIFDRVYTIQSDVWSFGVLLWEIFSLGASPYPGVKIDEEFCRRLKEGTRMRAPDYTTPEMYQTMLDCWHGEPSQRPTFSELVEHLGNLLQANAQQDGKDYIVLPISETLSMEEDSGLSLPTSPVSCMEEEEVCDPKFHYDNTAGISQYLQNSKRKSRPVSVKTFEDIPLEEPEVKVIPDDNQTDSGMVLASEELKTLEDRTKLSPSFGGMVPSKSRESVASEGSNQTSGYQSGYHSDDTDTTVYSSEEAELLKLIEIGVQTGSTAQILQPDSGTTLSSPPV
Description for HUVEC: Antiangiogenic activity in HUVEC assessed as inhibition of VEGF-induced cell proliferation by [3H]thymidine incorporation assay

`COC(=O)c1ccc2c(c1)NC(=O)/C2=C(\Nc1ccc(N(CCCN(C)C)C(C)=O)cc1)c1ccccc1` had an IC50 in experiment [1] of 9 nM. Also, in the experiment with HUVEC, the midpoint of the response, the EC50, lay at 15 nM.

In experiment [1], `COC(=O)c1ccc2c(c1)NC(=O)/C2=C(\Nc1ccc(N(C)C(=O)Cn2ccnc2)cc1)c1ccccc1` came in with an IC50 of 6 nM. The compound further yielded an EC50 in the experiment on HUVEC of 52 nM.

Consider `O=C1Nc2ccccc2/C1=C(/Nc1ccc(CN2CCCCC2)cc1)c1ccccc1`, for which half-maximal inhibition in experiment [1] (IC50) required 2110 nM.

In the case of `COC(=O)c1ccc2c(c1)NC(=O)/C2=C(\Nc1ccccc1)c1ccccc1`, the IC50 in experiment [1] worked out at 8000 nM.

As for `O=C1Nc2cc(C(=O)O)ccc2/C1=C(/Nc1ccc(CN2CCCCC2)cc1)c1ccccc1`, the IC50 in experiment [1] is over 1000 nM.

Take `CNC(=O)c1ccc2c(c1)NC(=O)/C2=C(\Nc1ccc(CN2CCCCC2)cc1)c1ccccc1`: in experiment [1], half-maximal inhibition (IC50) was put at 2100 nM. For the same compound, in the experiment with HUVEC, a half-maximal effect (EC50) was put at 1910 nM.

As for `Nc1ccc2c(c1)NC(=O)/C2=C(\Nc1ccc(CN2CCCCC2)cc1)c1ccccc1`, in experiment [1], the IC50 stood at 132 nM. In the experiment with HUVEC, this compound came in with an EC50 of 414 nM.

In experiment [1], `COC(=O)c1ccc2c(c1)NC(=O)/C2=C(\Nc1ccc(N(CCN(C)C)C(C)=O)cc1)c1ccccc1` gave an IC50 of 12 nM. The compound further displayed an EC50 with HUVEC of 15 nM.

For `COC(=O)c1ccc2c(c1)NC(=O)/C2=C(\Nc1cccc(C(=O)N(C)CCCN(C)C)c1)c1ccccc1`, the concentration for half-maximal inhibition (IC50) in experiment [1] turned out to be 248 nM.

`O=C1Nc2cc(Cl)ccc2/C1=C(/Nc1ccc(CN2CCCCC2)cc1)c1ccccc1` yielded an IC50 in experiment [1] of 129 nM. In the experiment with HUVEC, this compound displayed an EC50 of 49 nM.

`COC(=O)c1ccc2c(c1)NC(=O)/C2=C(\Nc1ccc(N(CCN(C)C)S(C)(=O)=O)cc1)c1ccccc1` yielded an IC50 in experiment [1] of 23 nM. In the experiment on HUVEC, this compound showed an EC50 of 14 nM.

Compound `COC(=O)c1ccc2c(c1)NC(=O)/C2=C(\Nc1ccc(NC(=O)CN(C)C)cc1)c1ccccc1` registered an IC50 in experiment [1] of 119 nM. The compound further gave an EC50 with HUVEC of 88 nM.

`O=C1Nc2cc(-n3cccc3)ccc2/C1=C(/Nc1ccc(CN2CCCCC2)cc1)c1ccccc1` registered an IC50 in experiment [1] of 791 nM. For the same compound, the EC50 in the experiment on HUVEC stood at 585 nM.

With `COC(=O)c1ccc2c(c1)NC(=O)/C2=C(\NC1CCN(C)CC1)c1ccccc1`, the IC50 in experiment [1] was over 10000 nM.

Regarding `CCN(C)C(=O)c1ccc2c(c1)NC(=O)/C2=C(\Nc1ccc(CN2CCCCC2)cc1)c1ccccc1`, 1450 nM corresponded to half-maximal inhibition in experiment [1] (IC50). The compound also yielded an EC50 in the experiment on HUVEC of 718 nM.

For `N#Cc1ccc2c(c1)NC(=O)/C2=C(\Nc1ccc(CN2CCCCC2)cc1)c1ccccc1`, the IC50 in experiment [1] is 248 nM. Moreover, the EC50 with HUVEC was 281 nM.

In turn, `COC(=O)c1ccc2c(c1)NC(=O)/C2=C(\Nc1ccc(C(=O)N(C)CCN(C)C)cc1)c1ccccc1` displayed an IC50 in experiment [1] of 24 nM. In addition, the response with HUVEC was half-maximal at 25 nM (EC50).

Take `COC(=O)c1ccc2c(c1)NC(=O)/C2=C(\Nc1ccc(N(C)S(C)(=O)=O)cc1)c1ccccc1`: the IC50 in experiment [1] amounted to 150 nM.

As to `COC(=O)c1ccc2c(c1)NC(=O)/C2=C(\NC1CCC(NC(=O)CN(C)C)CC1)c1ccccc1` (stereo not drawn), the IC50 in experiment [1] was over 10000 nM.

As to `COC(=O)c1ccc2c(c1)NC(=O)/C2=C(\Nc1ccc(CN2CCCC2=O)cc1)c1ccccc1`, inhibition in experiment [1] was half-maximal at 245 nM (IC50).

For the compound `CN(C)C(=O)c1ccc2c(c1)NC(=O)/C2=C(\Nc1ccc(CN2CCCCC2)cc1)c1ccccc1`, the IC50 in experiment [1] stood at 1310 nM. The compound further returned an EC50 in the experiment on HUVEC of 542 nM.

In experiment [1], `CC(C)NC(=O)c1ccc2c(c1)NC(=O)/C2=C(\Nc1ccc(CN2CCCCC2)cc1)c1ccccc1` yielded an IC50 of 1230 nM. The compound further returned an EC50 in the experiment on HUVEC of 1070 nM.

`CC(=O)Nc1ccc2c(c1)NC(=O)/C2=C(\Nc1ccc(CN2CCCCC2)cc1)c1ccccc1` came in with an IC50 in experiment [1] of over 3000 nM.

`COC(=O)c1ccc2c(c1)NC(=O)/C2=C(\Nc1ccc(N(CC(=O)N(C)C)C(C)=O)cc1)c1ccccc1` returned an IC50 in experiment [1] of 8 nM. The EC50 with HUVEC stood at 37 nM.

With `COC(=O)c1ccc2c(c1)NC(=O)/C2=C(\Nc1ccc(NC(=O)CN2CCN(C)CC2)cc1)c1ccccc1`, in experiment [1], half-maximal inhibition (IC50) was put at 83 nM. Further, the EC50 in the experiment on HUVEC was 83 nM.

As to `COC(=O)c1ccc2c(c1)NC(=O)/C2=C(\Nc1ccc(CN(C)C)cc1)c1ccccc1`, in experiment [1], half-maximal inhibition (IC50) was put at 64 nM.

Turning to `CC(=O)c1ccc2c(c1)NC(=O)/C2=C(\Nc1ccc(CN2CCCCC2)cc1)c1ccccc1`, inhibition in experiment [1] was half-maximal at 1750 nM (IC50).

(Values after ChEMBL document CHEMBL1137777, “Design, synthesis, and evaluation of indolinones as triple angiokinase inhibitors and the discovery of a highly specific 6-methoxycarbonyl-substituted indolinone (BIBF 1120)” (J Med Chem, 2009).)
